Results published in US20120190613A1, “ECHINOCANDIN DERIVATIVES” (priority 2009, published 2012).
Marks after values point to notes of the source that are not given here.

Test system: C. albicans R303
Test: Mouse candidiasis infection model, C. albicans density in kidneys
Type: in vivo, female CD-1 mice
Conditions: for Difference from 24-hr control / Mean log10 CFU/kidneys (±SD) / Difference from 24-h control / Mean log10 CFU/kidneys (±SEM): kidneys at 24 hr
Procedure: The objective of these studies was to evaluate the efficacy of test compounds in the mouse candidiasis infection model.
The strain, C. albicans R303 was transferred from frozen storage onto Sabauroud dextrose agar (SDA) plates and grown for ˜24 hr at 35° C. The inoculum was prepared by transferring colonies from the plate to phosphate buffered saline (PBS) and the concentration adjusted to 10^6 CFU/mL with the aid of a spectrophotometer. The stock was diluted 1:9 to prepare the inoculum. Prior to each run the concentration was verified using the dilution plate count method.
The female CD-1 mice used in this study were obtained from Charles River Laboratories, Portage, MI. The animals were approximately seven-weeks-old at the start of the study and weighed about 16-26 g.
In one approach, mice were made neutropenic with IP injections of cyclophosphamide (150 mg/kg in 10 mL/kg) at 4 and 1 day before inoculation. Each animal was inoculated with the appropriate concentration by injecting 0.1 mL of inoculum into a tail vein. The test compounds were administered IP at 2 hr after infection.
The kidneys were collected from four mice in control group 1 (untreated) at 2 hr after infection, and from the remaining mice in the study at 24 hr after infection. Kidneys were removed aseptically from each mouse and were combined in a sterile tube. An aliquot (2 mL) of sterile PBS was added to each tube and the contents homogenized with a tissue homogenizer (Polytron 3100). Serial dilutions of the tissue homogenates were conducted and 0.1 mL aliquots were spread on SDA plates and the plates incubated at 35° C. overnight. The CFU/kidneys were determined from colony counts. Data were analyzed using one-way ANOVA with the Tukey-Kramer Multiple Comparisons Test (GraphPad InStat version 3.06, GraphPad Software, San Diego, Calif.).
Treatments were administered at 2 hr after infection with 2.1×10^5 CFU/mL of the organism. Data are the means of four mice.
Treatments were administered at 2 hr after infection with 6.4×10^5 CFU/mL of the organism. Data are the means of four mice.
Treatments were administered at 2 hr after infection with 3.8×10^5 CFU/mL of the organism. Data are the means of four mice.
Treatments were administered at 2 hr after infection with 3.8×10^5 CFU/rnL of the organism. Data are the means of four mice.

[1] = Second run, 5 mg/kg IP 2 hr after infection
[2] = Fourth run, 0.5 mg/kg IP 2 hr after infection
[3] = Fourth run, 1.5 mg/kg IP 2 hr after infection
[4] = Fourth run, 4.5 mg/kg IP 2 hr after infection
[5] = Third run, 0.5 mg/kg IP 2 hr after infection
[6] = Third run, 1.5 mg/kg IP 2 hr after infection
[7] = Third run, 4.5 mg/kg IP 2 hr after infection

For `CCC(C)CC(C)CCCCCCCCC(=O)NC1CC(O)C(NCCNC(=O)OCCOCCOCCOC)NC(=O)C2C(O)CCN2C(=O)C(C(O)CCN)NC(=O)C(C(O)C(O)c2ccc(O)cc2)NC(=O)C2CC(O)CN2C(=O)C(C(C)O)NC1=O` (stereo not drawn) [Compound 12], the “Difference from 24-hr control” value [1] was −0.78 ns log10 CFU/kidneys and the “Mean log10 CFU/kidneys (±SD)” value [1] was 4.42 ± 0.14 log10 CFU/kidneys.

For `CCC(C)CC(C)CCCCCCCCC(=O)NC1CC(O)C(NCCNCCOC)NC(=O)C2C(O)CCN2C(=O)C(C(O)CCN)NC(=O)C(C(O)C(O)c2ccc(O)cc2)NC(=O)C2CC(O)CN2C(=O)C(C(C)O)NC1=O` (stereo not drawn) [Compound 13], the “Difference from 24-hr control” value [1] was −4.55*** log10 CFU/kidneys and the “Mean log10 CFU/kidneys (±SD)” value [1] was 0.65 ± 0.75 log10 CFU/kidneys.

In the case of `CCC(C)CC(C)CCCCCCCCC(=O)NC1CC(O)C(NCCN)NC(=O)C2C(O)CCN2C(=O)C(C(O)CCNC(=O)OCCOC)NC(=O)C(C(O)C(O)c2ccc(O)cc2)NC(=O)C2CC(O)CN2C(=O)C(C(C)O)NC1=O` (stereo not drawn) [Compound 14], the “Difference from 24-hr control” value [1] is reported as −1.13 ns log10 CFU/kidneys and the “Mean log10 CFU/kidneys (±SD)” value [1] is reported as 4.07 ± 0.17 log10 CFU/kidneys.

In the case of `CCC(C)CC(C)CCCCCCCCC(=O)NC1CC(O)C(NCCN)NC(=O)C2C(O)CCN2C(=O)C(C(O)CCNC(=O)OCCOCCOCCOC)NC(=O)C(C(O)C(O)c2ccc(O)cc2)NC(=O)C2CC(O)CN2C(=O)C(C(C)O)NC1=O` (stereo not drawn) [Compound 15], the “Difference from 24-hr control” value [1] is reported as −0.45 ns log10 CFU/kidneys and the “Mean log10 CFU/kidneys (±SD)” value [1] is reported as 4.75 ± 0.20 log10 CFU/kidneys.

In the case of `CCC(C)CC(C)CCCCCCCCC(=O)NC1CC(O)C(NCCOCCOCCOCCOC)NC(=O)C2C(O)CCN2C(=O)C(C(O)CCN)NC(=O)C(C(O)C(O)c2ccc(O)cc2)NC(=O)C2CC(O)CN2C(=O)C(C(C)O)NC1=O` (stereo not drawn) [Compound 16], the “Difference from 24-h control” value [2] is reported as −0.16 ns log10 CFU/kidneys, the “Mean log10 CFU/kidneys (±SEM)” value [2] is reported as 5.05 ± 0.12 log10 CFU/kidneys and the “Difference from 24-h control” value [3] is reported as −0.04 ns log10 CFU/kidneys. For the same compound, the “Mean log10 CFU/kidneys (±SEM)” value [3] was 5.16 ± 0.03 log10 CFU/kidneys, the “Difference from 24-h control” value [4] was −0.42 ns log10 CFU/kidneys and the “Mean log10 CFU/kidneys (±SEM)” value [4] was 4.78 ± 0.18 log10 CFU/kidneys. For the same compound, the “Effect on density of C. albicans in the kidneys” value (from here on “Effect on density of C. albicans”) (Fourth run, all dose levels (0.5, 1.5, 4.5 mg/kg)) was “ineffective”.

With `CCC(C)CC(C)CCCCCCCCC(=O)NC1CC(O)C(NCCOC)NC(=O)C2C(O)CCN2C(=O)C(C(O)CCN)NC(=O)C(C(O)C(O)c2ccc(O)cc2)NC(=O)C2CC(O)CN2C(=O)C(C(C)O)NC1=O` (stereo not drawn) [Compound 17] the “Effect on density of C. albicans” value (Fourth run, 0.5 mg/kg) was “not”, the “Difference from 24-h control” value [2] was −0.87 ns log10 CFU/kidneys and the “Mean log10 CFU/kidneys (±SEM)” value [2] was 4.33 ± 0.14 log10 CFU/kidneys. For the same compound, the “Difference from 24-h control” value [3] was −2.09*** log10 CFU/kidneys, the “Mean log10 CFU/kidneys (±SEM)” value [3] was 3.11 ± 0.14 log10 CFU/kidneys and the “Difference from 24-h control” value [4] was −4.25*** log10 CFU/kidneys. For the same compound, the “Mean log10 CFU/kidneys (±SEM)” value [4] was 0.95 ± 0.55 log10 CFU/kidneys and the “Effect on density of C. albicans” value (Fourth run, 4.5 and 1.5 mg/kg) was “significantly reduced the density”.

With `CCCCCOc1ccc(-c2ccc(-c3ccc(C(=O)NC4CC(O)C(OCCOC)NC(=O)C5C(O)C(C)CN5C(=O)C(C(C)O)NC(=O)C(C(O)C(O)c5ccc(O)cc5)NC(=O)C5CC(O)CN5C(=O)C(C(C)O)NC4=O)cc3)cc2)cc1` (stereo not drawn) [Compound 18] the “Difference from 24-hr control” value [1] was −3.44*** log10 CFU/kidneys and the “Mean log10 CFU/kidneys (±SD)” value [1] was 1.76 ± 0.44 log10 CFU/kidneys.

For `CCCCCOc1ccc(-c2ccc(-c3ccc(C(=O)NC4CC(O)C(OCCOCCOC)NC(=O)C5C(O)C(C)CN5C(=O)C(C(C)O)NC(=O)C(C(O)C(O)c5ccc(O)cc5)NC(=O)C5CC(O)CN5C(=O)C(C(C)O)NC4=O)cc3)cc2)cc1` (stereo not drawn) [Compound 19], the “Difference from 24-hr control” value [1] was −3.49*** log10 CFU/kidneys, the “Mean log10 CFU/kidneys (±SD)” value [1] was 1.71 ± 0.35 log10 CFU/kidneys and the “Difference from 24-hr control” value [5] was −0.03 ns log10 CFU/kidneys. For the same compound, the “Mean log10 CFU/kidneys (±SEM)” value [5] was 4.84 ± 0.26 log10 CFU/kidneys, the “Difference from 24-hr control” value [6] was −2.06*** log10 CFU/kidneys and the “Mean log10 CFU/kidneys (±SEM)” value [6] was 2.82 ± 0.10 log10 CFU/kidneys. The “Difference from 24-hr control” value [7] was −3.82*** log10 CFU/kidneys and the “Mean log10 CFU/kidneys (±SEM)” value [7] was 1.05 ± 0.36 log10 CFU/kidneys.
